In patent US20250154131A1 (HAINAN SIMCERE PHARMACEUTICAL CO., LTD., priority 2021, published 2025):

Target: SARS-COV-2 3CL Protease (Severe acute respiratory syndrome coronavirus 2 (2019-nCoV) (SARS-CoV-2), UniProt P0DTD1)
Assay: biochemical
Type: biochemical
Conditions: recombinant MBP-tagged 3CL protease, 30 min preincubation

Row | Compound | IC50 (class symbol column) | IC50 (numeric column)
1 | CC1(C)[C@@H]2[C@@H](C(=O)N[C@H](C#N)C[C@@H]3CCNC3=O)N(C(=O)C(NC(=O)C(F)(F)F)C3CC4(CCC4)C3)C[C@@H]21 (stereo partly drawn) [Compound 3, (1R,2S,5S)—N—((S)-1-cyano-2-((S)-2-carbonylpyrrolidin-3-yl)ethyl)-6,6-dimethyl-3-(2-(spiro[3.3]heptan-2-yl)-2-(2,2,2-trifluoroacetamido)acetyl)-3-azabicyclo[3.1.0]hexane-2-carboxamide] | 100 to 1000 nM | 525 nM
2 | CC1(C)[C@@H]2[C@@H](C(=O)N[C@H](C#N)C[C@@H]3CCNC3=O)N(C(=O)[C@H](Cc3ccc4ccccc4c3)NC(=O)C(F)(F)F)C[C@@H]21 [Compound 4, (1R,2S,5S)—N—((S)-1-Cyano-2-((S)-2-carbonylpyrrolidin-3-yl)ethyl)-6,6-dimethyl-3-((S)-3-(naphthalen-2-yl)-2-(2,2,2-trifluoroacetamido)propanoyl)-3-azabicyclo[3.1.0]hexane-2-carboxamide] | 100 to 1000 nM | 273 nM
3 | CC1(C)[C@@H]2[C@@H](C(=O)N[C@H](C#N)CC3C(=O)Nc4ccccc43)N(C(=O)[C@@H](NC(=O)C(F)(F)F)C34CC5CC(CC(O)(C5)C3)C4)C[C@@H]21 (stereo partly drawn) [Compound 5, (1R,2S,5S)—N-((1S)-1-Cyano-2-(2-carbonylindolin-3-yl)ethyl)-3-((S)-2-((1r,3R,5R,7S)-3-hydroxyadamantan-1-yl)-2-(2,2,2-trifluoroacetamido)acetyl)-6,6-dimethyl-3-azabicyclo[3.1.0]hexane-2-carboxamide] | < 100 nM | 69.8 nM
4 | CN(C)C1CCC(C(NC(=O)C(F)(F)F)C(=O)N2C[C@H]3[C@@H]([C@H]2C(=O)N[C@H](C#N)C[C@@H]2CCNC2=O)C3(C)C)CC1 (stereo partly drawn) [Compound 6, (1R,2S,5S)—N—((S)-1-cyano-2-((S)-2-oxopyrrolidin-3-yl)ethyl)-3-(2-(4-(dimethylamino)cyclohexane)-2-(2,2,2-trifluoroacetamido)acetyl)-6,6-dimethyl-3-azabicyclo[3.1.0]cyclohexane-2-carboxamide] | 100 to 1000 nM | 449 nM
5 | CN(C)CCCC[C@H](NC(=O)C(F)(F)F)C(=O)N1C[C@H]2[C@@H]([C@H]1C(=O)N[C@H](C#N)C[C@@H]1CCNC1=O)C2(C)C [Compound 7, (1R,2S,5S)—N—((S)-1-cyano-2-((S)-2-oxopyrrolidin-3-yl)ethyl)-3-(N^6,N^6-dimethyl-N^2-(2,2,2-trifluoroacetyl)-L-lysyl)-6,6-dimethyl-3-azabicyclo[3.1.0]cyclohexane-2-carboxamide] | 1000 to 10000 nM | 1110 nM
6 | CC(C)(C)[C@H](NC(=O)C(F)(F)F)C(=O)N1C[C@H]2[C@@H]([C@H]1C(=O)N[C@H](C#N)CC1C(=O)Nc3ncccc31)C2(C)C (stereo partly shown) [Compound 8] | < 100 nM | 33.4 nM
7 | CC(C)(C)[C@H](NC(=O)C(F)(F)Cl)C(=O)N1C[C@H]2[C@@H]([C@H]1C(=O)N[C@H](C#N)CC1C(=O)Nc3ccccc31)C2(C)C (stereo partly drawn) [Compound 9, (1R,2S,5S)-3-((S)-2-(2-Chloro-2,2-difluoroacetamido)-3,3-dimethylbutanoyl)-N-((1S)-1-cyano-2-(2-oxoindol-3-yl)ethyl)-6,6-dimethyl-3-azabicyclo[3.1.0]hexane-2-carboxamide] | < 100 nM | 25.2 nM
8 | CC1(C)[C@@H]2[C@@H](C(=O)N[C@H](C#N)C[C@@H]3CCNC3=O)N(C(=O)[C@@H](NC(=O)C(F)(F)F)C34C[C@@H]5C[C@@H](CC(O)(C5)C3)C4)C[C@@H]21 [Compound 10, (1R,2S,5S)—N—((S)-1-Cyano-2-((S)-2-oxopyrrolidin-3-yl)ethyl)-3-((S)-2-((1R,3R,5R,7S)-3-hydroxyadamantan-1-yl)-2-(2,2,2-trifluoroacetamido)acetyl)-6,6-dimethyl-3-azabicyclo[3.1.0]hexane-2-carboxamide] | < 100 nM | 69.8 nM
